Consider 2 compounds from patent US20220288046A1, “COMBINATION PRODUCT CONTAINING LIMONOID COMPOUND AND THIAZOLIDINEDIONE COMPOUND” (ZHEJIANG YANGSHENGTANG INSTITUTE OF NATURAL MEDICATION CO., …, priority 2019, published 2022).

Structures are written as SMILES.

Type in all cases: in vivo
The test system of test [1] is STZ mice. The experiment in a line: Blood glucose in mouse type II diabetes model with pancreatic islet damage and obesity (STZ + high-fat diet ICR mice), limonoid/pioglitazone. The following applies: single agent 0.5 g/kg per day gavage, two weeks, 1 h after last administration, mean ± SD. The text has this:
Effects of limonoid compound, pioglitazone or combination thereof on blood glucose in mouse type II diabetes model with pancreatic islet damage and obesity In this example, a mouse model of type II diabetes with pancreatic islet damage and obesity was established by multiple modeling ICR mice with a small dose of streptozotocin (STZ), following with continuous high-fat diets (referring to literature: […] Conditions of experimental feeding: […] The experimental feed was mouse growth-stable feed (GB […]), and the daily feeding and management of the animals were under the responsibility of the animal security department, which provided the animals with sufficient diet and fresh drinking water daily. Experimental grouping: 15 male mice were randomly selected as the normal control group, and the remaining mice were subjected to a high-fat diet (high-fat diet formula: cholesterol 1%, egg yolk powder 10%, lard oil 10%, and basic feed 79%, for establishing an obesity mouse model) for consecutive 4 weeks and intraperitoneal injection of STZ at a dose of 35mg/kg for three consecutive days. […] SPSS 16.0 software was used for statistical analysis. The data were expressed as mean and standard deviation. The data before and after were analyzed by t-test, and P <0.05 was considered statistically significant.

For test [2], the system named is db/db mice. As to the kind of experiment: Blood glucose in mouse type II diabetes model (db/db mice), limonoid/pioglitazone. The following applies: single agent 0.04 g/kg per day gavage, two weeks, 1 h after last administration, mean ± SD. The source says:
(§1) Effects of limonoid compound, pioglitazone or combination thereof on blood glucose and leptin in mouse type II diabetes model In the present example, db/db mice (line name BKS.Cg-Dock7m^+/+Lepr^db/Nju) were used to perform hypoglycemic efficacy evaluation test of animals (blood glucose level and leptin). The limonoid compound was selected from obacunone, isoobacunoic acid and obacunone glycoside, and pioglitazone single administration group, obacunone single administration group, isoobacunoic acid single administration group, obacunone glycoside single administered group, and respective combination thereof with pioglitazone administration groups were set. Conditions for experimental feeding: as type II diabetes model mice, 6-week-old SPF-grade db/db mice were purchased from the Nanjing Model Biology Institute, and subjected to experimental feeding after 7 days of preliminary feeding. […] The experimental feed was mouse growth-stable feed (GB […]), and the daily feeding and management of the animals were under the responsibility of the animal security department, which provided the animals with sufficient diet and fresh drinking water daily. […] The data were expressed as mean and standard deviation. The data before and after were analyzed by t-test, and P <0.05 was considered statistically significant.

Test [3] concerns db/db mice. As to the kind of experiment: Serum leptin (Elisa) in mouse type II diabetes model (db/db mice), limonoid/pioglitazone. The following applies: single agent 0.04 g/kg per day gavage, two weeks, mean ± SD.
From the text: as §1

The subject of test [4] is STZ mice. The experiment in a line: Blood glucose in mouse pancreatic islet β-cell injury model (STZ ICR mice), limonoid/pioglitazone. As to conditions: single agent 0.1 g/kg per day gavage, two weeks, 1 h after last administration, mean ± SD. The source says:
Effects of limonoid compound, pioglitazone or combination thereof on blood glucose in mouse pancreatic islet β-cell injury model In this example, a mouse pancreatic islet β-cell injury model was established by modeling ICR mice with streptozotocin (STZ) (Li Nan et al., Protective effect of pine pollen on kidney damage in diabetic nephropathy mice, Science and Technology Review, 2014, 32 (4⁄5): 95-99), and used to complete the evaluation of hypoglycemic effect in animals (this model could simulate pancreatic islet β-cell damage state of type I and type II diabetics). The limonoid compound was selected from the group consisting of […], and […] glycoside, and pioglitazone single administration group, […] single administration group, […] single administration group, […] glycoside singe administration group, and respective combination thereof with pioglitazone administration groups were set. Conditions of experimental feeding: […] The experimental feed was mouse growth-stable feed (GB […]), and the daily feeding and management of the animals were under the responsibility of the animal security department, which provided the animals with sufficient diet and fresh drinking water daily. […] The data were expressed as mean and standard deviation. The data before and after were analyzed by t-test, and P <0.05 was considered statistically significant.

Test [5] concerns db/db mice. The experiment in a line: Blood glucose in mouse type II diabetes model (db/db mice), limonoid/rosiglitazone. The following applies: single agent 0.2 g/kg per day gavage, two weeks, 1 h after last administration, mean ± SD. The source says:
(§2) Effects of limonoid compound, rosiglitazone or combination thereof on blood glucose and insulin in mouse type II diabetes model
(§3) In the present embodiment, the limonoid compound was selected from nomilin, deacetylnomilin, nomilin acid, deacetylnomilin acid glycoside, and rosiglitazone single administration group, nomilin single administration group, deacetylnomilin single administration group, nomilin acid single administered group, deacetylnomilin acid glycoside single administration group, and respective combination thereof with rosiglitazone administration groups were set.
(§4) Conditions for experimental feeding: as type II diabetes model mice, 6-week-old SPF-grade db/db mice were purchased from the Nanjing Model Biology Institute, and subjected to experimental feeding after 7 days of preliminary feeding. […]
(§5) Two weeks later, the blood glucose values were measured by tail trimming method (Johnson's blood glucose meter) 1 h after the last administration, and serum insulin levels were measured with blood collected from orbital cavity by enzyme-linked immunosorbent assay (Elisa), and the average of each group was obtained. […] The data were expressed as mean and standard deviation.

Test [6] concerns db/db mice. As to the kind of experiment: Serum insulin (Elisa) in mouse type II diabetes model (db/db mice), limonoid/rosiglitazone. As to conditions: single agent 0.2 g/kg per day gavage, two weeks, mean ± SD.
From the text: as §2, §3, §4, §5

Test [7] deals with STZ mice. The experiment in a line: Blood glucose in mouse pancreatic islet β-cell injury model (STZ ICR mice), limonoid/rosiglitazone. The following applies: single agent 0.02 g/kg per day gavage, two weeks, 1 h after last administration, mean ± SD. As for the experimental part:
It should be noted that the conditions for raising the mice were as follows: the temperature was 23±1° C., the humidity was 55±10%, the lights were turned on between 7 am and 7 pm (the lights were turned off at other time), and the mice were allowed to freely take in water and feed. The experimental feed was mouse growth-stable feed (GB M2118), and the daily feeding and management of the animals were under the responsibility of the animal security department, which provided the animals with sufficient diet and fresh drinking water daily.
SPSS 16.0 software was used for statistical analysis. The data were expressed as mean and standard deviation.

As for `CCc1ccc(CCOc2ccc(CC3SC(=O)NC3=O)cc2)nc1` (stereo not shown) [Pioglitazone, pioglitazone], the Blood glucose value in the test with STZ mice [1] came out at 9.9 ± 2.1 mmol/L; with db/db mice [2] it was 11.5 ± 3.0 mmol/L; with STZ mice [4], 12.8 ± 3.1 mmol/L. The Leptin with db/db mice [3] was found to be 24.55 ± 5.14 pg/mL.
For the compound `CN(CCOc1ccc(CC2SC(=O)NC2=O)cc1)c1ccccn1` (stereo not shown) [Rosiglitazone, rosiglitazone], the Blood glucose value in the test with db/db mice [5] was 10.0 ± 2.5 mmol/L; with STZ mice [7] it was 17.9 ± 3.5 mmol/L. For the same compound, the Insulin in the test on db/db mice [6] came to 7.54 ± 1.21 pg/mL.
